We go through eleven compounds from ChEMBL document CHEMBL1201862, “PubChem BioAssay data set” (2004).

Holding throughout (experiment): DTP human tumour cell line panel, 48 h
The subject of test [1] is A549.
The subject of test [2] is ACHN.
For test [3], the system named is CCRF-CEM.
Test [4] relates to COLO 205.
Test [5] has as its system EKVX.
Test [6] deals with HCT-15.
For test [7], the system named is HOP-62.
The test system of test [8] is K562.
Test [9] deals with MOLT-4.
The subject of test [10] is NCI-H23.
In test [11] the test system is OVCAR-3.
For test [12], the system named is OVCAR-4.
In test [13] the test system is SF-268.
Test [14] has as its system SF-295.
Test [15] has as its system SK-OV-3.
Test [16] has as its system SN12C.
Test [17] concerns U-251.
In test [18] the test system is UACC-257.
Test [19] has as its system UACC-62.
Test [20] concerns UO-31.

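Where inhibition never reached the appropriate level, the endpoint shown equals the highest concentration tested. Otherwise, values were interpolated linearly from a five-concentration, 48-hour dose response in 96-well plates. The concentration for 50% growth inhibition is given as GI50.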 Activity calls are given as the source filed them. Cut-off read from the data, not from the text of the source: active = GI50 up to about 1.1 µM and inactive = higher.

One may read the GI50 as the concentration that inhibits growth by half. In the case of `COc1ccc(/C=C/C(=O)C(C)(C)C)cc1OC`, the GI50 in test [1] was > 100 µM (inactive); in [2], > 100 µM (inactive); in test [3] it was 36.2 µM (inactive); in test [4], > 100 µM (inactive); in test [5] it was > 100 µM (inactive); in [6] it was 38.5 µM. Also, the GI50 is > 100 µM (inactive) in test [7]; 36.7 µM (inactive) in [8]; 59.6 µM (inactive) in [9]; 41.5 µM (inactive) in test [10]; 64.7 µM (inactive) in test [11]; 79.6 µM (inactive) in test [12]. In addition, the GI50 was 78.2 µM (inactive) in [13]; > 100 µM (inactive) in [14]; 76.2 µM (inactive) in test [15]; 65.8 µM (inactive) in test [16]; > 100 µM (inactive) in test [17]; 63.5 µM (inactive) in [18]. Moreover, the GI50 was 52.6 µM (inactive) in test [19] and > 100 µM (inactive) in test [20].
For `Cc1cn(C2CC(n3cc(Cn4ccc(=O)[nH]c4=O)nn3)C(CO)O2)c(=O)[nH]c1=O` (stereo not drawn), the GI50 in [1] is > 100 µM (inactive); in test [2], > 100 µM (inactive); in test [3], > 100 µM (inactive); in test [4], > 100 µM (inactive); in [6], more than 100 µM; in [7] it was > 100 µM (inactive). The GI50 in test [9], in test [10], in [11], in test [12], in test [13] and in [14] was > 100 µM (inactive) throughout. For the same compound, the GI50 in test [15] was 49 µM (inactive); in test [16], > 100 µM (inactive); in test [17] it was > 100 µM (inactive); in test [18], > 100 µM (inactive); in test [19] it was > 100 µM (inactive); in test [20] it was > 100 µM (inactive).
Take `CN1CCC(C(=O)NNc2ccccc2)CC1`: the GI50 was 12.2 µM (inactive) in [1]; 2.66 µM (inactive) in [2]; 3.08 µM (inactive) in test [4]; 34.5 µM (inactive) in [5]; 1.61 µM in test [6]; 14.3 µM (inactive) in test [7]. The 50% growth inhibitory concentration (GI50) in test [8] was 0.931 µM (active); in [9], 1.23 µM (inactive); in test [10], 42.4 µM (inactive); in test [11], 16.9 µM (inactive); in [12], 13.3 µM (inactive); in test [13], 7.05 µM (inactive). Further, the GI50 in test [14] was 2.12 µM (inactive); in test [15] it was > 100 µM (inactive); in [16], > 100 µM (inactive); in test [17], > 17.7 µM (inactive); in test [18] it was 18.6 µM (inactive); in test [19], 2.48 µM (inactive). Further, the GI50 in test [20] is 3.16 µM (inactive).
On to `C#CCCCCC#Cc1ccccc1C(=O)OC`, for which the GI50 in test [1] was > 100 µM (inactive); in test [2] it was 64.3 µM (inactive); in test [3] it was 2.91 µM (inactive); in [4] it was > 100 µM (inactive); in test [5], 85.1 µM (inactive); in test [6], 63.8 µM. The GI50 was > 100 µM (inactive) in test [7]; 9.93 µM (inactive) in test [8]; 12.7 µM (inactive) in test [9]; 37.4 µM (inactive) in test [10]; 32.5 µM (inactive) in test [11]; 58.9 µM (inactive) in test [12]. The GI50 was 21 µM (inactive) in test [13]; 37.3 µM (inactive) in [14]; > 100 µM (inactive) in test [15]; 35 µM (inactive) in test [16]; 65.6 µM (inactive) in [17]; 71.8 µM (inactive) in test [18]. Moreover, the GI50 was 32.7 µM (inactive) in test [19] and 40.5 µM (inactive) in test [20].
With `Cc1c2ccccc2c(CO)c2cc(F)c3ccccc3c12`, the GI50 in [1] was 26.6 µM (inactive); in test [2] it was 19.5 µM (inactive); in test [3], 22.3 µM (inactive); in test [4] it was 15.6 µM (inactive); in test [5], 29.9 µM (inactive); in test [7] it was 31.5 µM (inactive). Also, the GI50 was 23.5 µM (inactive) in test [8]; 14.8 µM (inactive) in test [9]; 36.5 µM (inactive) in [10]; 26.9 µM (inactive) in [11]; 23.4 µM (inactive) in [12]; 24.5 µM (inactive) in test [13]. Also, the GI50 in [14] is 21.9 µM (inactive); in test [15], 29 µM (inactive); in [16] it was 17.3 µM (inactive); in test [17], 21.3 µM (inactive); in test [18], 47.3 µM (inactive); in [19], 27.2 µM (inactive). For the same compound, in [20], the GI50 was 40 µM (inactive).
For the compound `CC1CC(c2ccc([N+](=O)[O-])cc2)=Nc2ccccc2[S+]1[O-]` (stereo not drawn), the GI50 is 20 µM (inactive) in test [1]; 21.3 µM (inactive) in test [2]; 11 µM (inactive) in [3]; 18 µM (inactive) in test [4]; 23.4 µM (inactive) in test [5]; 14.6 µM in test [6]. Besides, the GI50 is 26.1 µM (inactive) in test [7]; 17.5 µM (inactive) in test [8]; 24.8 µM (inactive) in test [9]; 17.6 µM (inactive) in [10]; 21.6 µM (inactive) in test [12]; 20.1 µM (inactive) in test [13]. Further, the GI50 in [14] is 21.4 µM (inactive); in [15], 23 µM (inactive); in test [16], 37.6 µM (inactive); in test [17], 13.6 µM (inactive); in [18], 20.2 µM (inactive); in test [19] it was 17.7 µM (inactive). In addition, the GI50 in [20] is 13 µM (inactive).
Turning to `COc1cc(OC)cc(N2CCC(c3c(N)nc(N)nc3Cl)CC2)c1`, the GI50 is 65 µM (inactive) in test [1]; 70.5 µM (inactive) in [2]; 47.1 µM (inactive) in [3]; 58.1 µM (inactive) in test [4]; 95.3 µM (inactive) in [5]; 99.5 µM in [6]. The GI50 in test [7] was 62.2 µM (inactive); in [8], 31.6 µM (inactive); in test [9] it was 31.5 µM (inactive); in test [10], > 100 µM (inactive); in [11], 83.9 µM (inactive); in [12] it was 91.8 µM (inactive). Besides, the GI50 was 98.2 µM (inactive) in test [13]; 83 µM (inactive) in test [14]; > 100 µM (inactive) in test [15]; > 100 µM (inactive) in test [16]; 43.7 µM (inactive) in [18]; 52.6 µM (inactive) in test [19]. In addition, the GI50 in [20] is 62.8 µM (inactive).
As to `Cc1cc2c(cc1Cl)Sc1n[nH]c(=O)n1S2(=O)=O`, the GI50 in [1] is > 100 µM (inactive); in test [2], > 100 µM (inactive); in test [3], > 100 µM (inactive); in test [4], > 100 µM (inactive); in test [5], > 100 µM (inactive); in [6], more than 100 µM. The GI50 was > 100 µM (inactive) in test [7]; > 100 µM (inactive) in [8]; > 100 µM (inactive) in [9]; > 100 µM (inactive) in test [10]; 95.5 µM (inactive) in test [11]; > 100 µM (inactive) in test [12]. For the same compound, the GI50 in test [13], in test [14], in [15], in [16], in test [17] and in test [18] was > 100 µM (inactive) in each case. Further, the GI50 in [19] and in [20] was > 100 µM (inactive) in each case.
Turning to `CC1(C)C(=O)OC(n2cc(F)c(=O)[nH]c2=O)C1=O` (stereo not drawn), the GI50 was 66.5 µM (inactive) in test [1]; > 100 µM (inactive) in test [2]; > 100 µM (inactive) in test [3]; > 100 µM (inactive) in [4]; 39.1 µM (inactive) in [5]; more than 100 µM in test [6]. For the same compound, the GI50 in test [7] is 65.9 µM (inactive); in test [8] it was > 100 µM (inactive); in test [9], > 100 µM (inactive); in [10], > 100 µM (inactive); in [11], > 100 µM (inactive); in test [12], > 100 µM (inactive). In addition, the GI50 in [13], in [14], in test [15], in test [16], in test [17] and in [18] was > 100 µM (inactive) in each case. Also, the GI50 in test [19] and in test [20] was > 100 µM (inactive) in each case.
Regarding `NC(=O)c1ncn2c1CNC(=O)C2`, the GI50 in test [1] was > 100 µM (inactive); in test [2], > 100 µM (inactive); in [3], > 100 µM (inactive); in test [4] it was > 100 µM (inactive); in [5], > 100 µM (inactive); in test [6] it was more than 100 µM. Moreover, the GI50 in test [7], in test [8], in test [9], in [10], in test [11] and in test [12] was > 100 µM (inactive) in each case. For the same compound, the GI50 in [13], in test [14], in [15], in test [16], in [17] and in test [18] was > 100 µM (inactive) throughout. In addition, the GI50 in test [19] and in [20] was > 100 µM (inactive) throughout.
Take `Cc1cc2c(=O)c3ccccc3[nH]c2c(C(N)=O)c1C`: the GI50 in [1] was > 100 µM (inactive); in test [2], > 100 µM (inactive); in [3] it was > 100 µM (inactive); in test [4], > 100 µM (inactive); in test [5] it was > 100 µM (inactive); in test [6] it was more than 100 µM. The GI50 in [8], in test [9], in test [10], in test [11], in test [12] and in [13] was > 100 µM (inactive) each time. For the same compound, the GI50 in test [14], in test [15], in test [16], in test [17], in [18] and in test [19] was > 100 µM (inactive) each time. Moreover, the GI50 in [20] is > 100 µM (inactive).
